Measured values: US20180291043A1, “BENZOCYCLOOCTENE-BASED AND INDENE-BASED ANTICANCER AGENTS” (BAYLOR UNIVERSITY, priority 2016, published 2018)
Entries after “also recorded” stand apart in the source; their conditions may differ. Read-outs that look alike come from different tables or passages of the source.

Assays:
[1] = system: tubulin; assay: Colchicine binding assay (inhibition of [3H]colchicine binding to tubulin)
Method: Inhibition of [^3H]colchicine binding to tubulin was measured using reaction mixtures (100 μL each) containing 1.0 μM tubulin, 5.0 μM [^3H]colchicine (from Perkin-Elmer), 5% (v/v) dimethyl sulfoxide, […], and components that stabilize the colchicine binding activity of tubulin (Hamel et al., 1981) (1.0 M monosodium glutamate [adjusted to pH 6.6 with HCl in a 2.0 M stock solution], 0.5 mg/mL bovine serum albumin, 0.1 M glucose-1-phosphate, 1.0 mM MgCl2, and 1.0 mM GTP). […] Reactions were stopped with 2.0 mL of ice-cold water, and the reaction mixtures were placed on ice. Each sample was poured onto a stack of two DEAE-cellulose filters (from Whatman), followed by 6 mL of ice-cold water. The samples were aspirated under reduced vacuum. The filters were washed three times with 2 mL water and placed into vials containing 5 mL of Biosafe II scintillation cocktail. Samples were counted 18 h later in a Beckman scintillation counter. Samples with inhibitors were compared to samples with no inhibitor, and percent inhibition was determined. All samples were corrected for the amount of radiolabel bound to the filters in the absence of tubulin.

[2] = system: purified bovine brain tubulin; details: Data from Pettit et al., 2000; read-out: Inhibition of tubulin polymerization IC50 (μM) ± SD; cited from earlier work
[3] = system: NCI-H460; details: Data from Devkota et. al., 2016; read-out: GI50 (μM) SRB assay NCI-H460; cited from earlier work
[4] = system: DU-145; details: Data from Devkota et. al., 2016; read-out: GI50 (μM) SRB assay DU-145; cited from earlier work
[5] = system: SK-OV-3; details: Data from Devkota et. al., 2016; read-out: GI50 (μM) SRB assay SK-OV-3; cited from earlier work
[6] = system: purified bovine brain tubulin; assay: Inhibition of tubulin polymerization (tubulin assembly); format: biochemical; details: 10 μM tubulin, extent of assembly after 20 min at 30° C.; read-out: Inhibition of tubulin polymerization IC50 (μM) ± SD
Method: Inhibition of Tubulin Polymerization
Tubulin assembly experiments were performed in 0.25 mL reaction mixtures (final volume) (Hamel, 2003). The mixtures contained 1 mg/mL (10 μM) purified bovine brain tubulin, 0.8 M monosodium glutamate (pH 6.6), 4% (v/v) dimethyl sulfoxide, 0.4 mM GTP, and different compound concentrations. All reaction components except GTP were preincubated for 15 min at 30° C. in 0.24 mL. The mixtures were cooled to 0° C., and 10 μL of 10 mM GTP were added. Reaction mixtures were transferred to cuvettes held at 0° C. in Beckman DU-7400 and DU-7500 spectrophotometers equipped with electronic temperature controllers. The temperature was jumped to 30° C., taking about 30 s, and polymerization was followed at 350 nm for 20 min.

[7] = system: NCI-H460; assay: SRB assay, growth inhibition, NCI-H460; format: cell-based, human; details: 48 h treatment, average of n ≥ 3
Method: (§1) Inhibition of growth of human cancer cells was assessed using the sulforhodamine B assay (SRB), as described in Monks et al., 1991. Cancer cell lines (DU-145, SK-OV-3, and NCI-H460) were plated at 7500-8000 cells/well into 96-well plates using DMEM supplemented with 5% fetal bovine serum/1% gentamicin sulfate and incubated for 24 h at 37° C. in a humidified incubator. Compound serial dilutions were then added. After 48 h treatment, the cells were fixed with trichloroacetic acid (10% final concentration), washed, dried, stained with sulforhodamine B dye (Acid red 52), washed to remove excess dye, and dried. SRB dye was solubilized, and absorbances were measured at wavelength 540 nm and normalized to values at wavelength 630 nm using an automated Biotek plate reader.

[8] = system: DU-145; assay: SRB assay, growth inhibition, DU-145; format: cell-based, human; details: 48 h treatment, average of n ≥ 3
Method: as §1

[9] = system: SK-OV-3; assay: SRB assay, growth inhibition, SK-OV-3; format: cell-based, human; details: 48 h treatment, average of n ≥ 3
Method: as §1

[10] = system: human cancer cell lines (DU-145, SK-OV-3, NCI-H460); assay: SRB cytotoxicity, statements over the three human cancer cell lines; format: cell-based; details: all three human cancer cell lines
Method: as §1

[11] = system: MCF7-luc-GFP-mCherry breast tumor; assay: Bioluminescence imaging (BLI) of vascular disruption in tumor-bearing mice; format: in vivo, SCID mice; details: for reduction in bioluminescence (decrease compared to baseline or saline control): single dose 120 mg/kg ip, 4 h after compound injection, p<0.05
Method: Human breast cancer cells, MCF7-luc-GFP-mCherry (ATCC), were transfected sequentially with a lentivirus containing firefly luciferase reporter, GFP and mCherry reporter genes, as described in Liu et al., 2012. Highly expressing stable clones were isolated. Induction of tumors was carried out by injecting 10^6 cells mixed with 50% Matrigel™ (BD Biosciences, San Jose, Calif.) into the right upper ventral mammary fat pads of female SCID-NOD mice (UTSW breeding colony). Tumors were allowed to grow to a size of 10-12 mm in diameter, determined by calipers, before selection for BLI. All animal procedures were approved by the University of Texas Southwestern Medical Center Institutional Animal Care and Use Committee.
Bioluminescence imaging was carried out as described in Liu et al., 2012. Briefly, anesthetized, tumor bearing mice (O2, 2% isoflurane, Henry Schein Inc., Melville, N.Y.) were injected subcutaneously in the fore-back neck region with 80 μL of a solution of luciferase substrate, D-luciferin (sodium salt, 120 mg/kg, in saline, Gold Biotechnology, St. Louis, Mo.). Mice were maintained under anesthesia (2% isoflurane in oxygen, 1 dm^3/min), while baseline bioluminescence imaging was performed using a Caliper Xenogen IVIS® Spectrum (Perkin-Elmer, Alameda, Calif.). A series of BLI images was collected over 35 min using the following settings: auto exposure time, f-stop=2, Field of view=D, binning=4 (medium). Light intensity-time curves obtained from these images were analyzed using Living Image® software and light emission compared based on area under the light emission curve. Mice were injected intraperitoneally with either 120 μL of saline (vehicle), CA4P (provided by Mateon Therapeutics, Inc.; 120 mg/kg in saline as used in Mason et al., 2011 or analogue 24 (120 mg/kg) in saline immediately after baseline BLI. Bioluminescence imaging was repeated, with new luciferin injections 4, 24, and 48 h later.
Bioluminescence imaging (BLI) is a highly valuable modality with diverse applications in a wide range of biological models and systems. BLI is a particularly useful tool for assessing and quantifying in vivo blood flow reduction following treatment with a VDA. In the current study MCF7 human breast cancer cells, which had been previously transfected stably to express the enzyme luciferase, as well as two fluorescent proteins, as designated by MCF7-luc-GFP-mCherry were implanted in SCID mice. Since the luciferase substrate luciferin can be delivered to the tumor via the blood stream, damage to the vessels by a VDA can be quantified by measurement of reduced bioluminescence upon injection of luciferin. […]

[12] = system: MCF7-luc-GFP-mCherry breast tumor; assay: Histological assessment of tumor necrosis (H&E); format: in vivo, SCID mice; details: 120 mg/kg, 48 h post treatment
Method: Following the 48 h BLI data acquisition, the tumors were excised, bisected and fixed in 4% paraformaldehyde solution. Tumor tissue was processed for paraffin embedding, sectioned and stained by routine methods. H&E staining was performed on one cross section from each tumor. Whole mount high resolution microscopy was obtained using a Zeiss Axioscan Z1 digital slide scanner. […] Thus, analogue 24 may be a therapeutically useful VDA.

[13] = Limited dose escalation study (tolerability); format: in vivo, non-tumor bearing SCID mice; details: dose of 120 mg/kg; dose escalation 60-150 mg/kg; MTD not yet determined
[14] = inhibitor at 5 μM, 1.0 μM tubulin, 5.0 μM [3H]colchicine

Compound | IC50 [6] | % Inhibition of colchicine binding ± SD [1, 14] | GI50 ([7]; Homo sapiens, NCI-H460) | GI50 ([8]; Homo sapiens, DU-145) | GI50 ([9]; Homo sapiens, SK-OV-3) | other results
COc1ccc(/C=C\c2cc(OC)c(OC)c(OC)c2)cc1O [CA4] |  |  |  |  |  | % Inhibition of colchicine binding ± SD ([1]; inhibitor at 1 μM): […]; IC50 [2]: […]; GI50 [3]: 0.005 µM; GI50 [4]: 0.00602 µM; GI50 [5]: 0.00506 µM
COc1ccc2c(c1O)CCCCC=C2c1cc(OC)c(OC)c(OC)c1 [Compound 23, 1-Hydroxy-2-methoxy-5-(3′,4′,5′-trimethoxyphenyl)-benzocyclooct-5-ene] | 1.2 µM | 78% | 107 nM | 105 nM | 81.1 nM | GI50 values / cytotoxicity range in words [10]: submicromolar
COc1cc(C2=CCc3c2ccc(OC)c3OC)cc(OC)c1OC [Compound 28, 6,7-Dimethoxy-3-(3′,4′,5′-trimethoxyphenyl)-1H-indene] | > 20 µM |  | 42200 nM | 34600 nM | 9460 nM | 
COc1cc(C2=CCCCCc3c2ccc(OC)c3OC)cc(OC)c1OC [Compound 20, 1,2-Dimethoxy-5-(3′,4′,5′-trimethoxyphenyl)-benzocyclooct-5-ene] | 4.5 ± 0.5 µM | 31 ± 0.6 (5 μM) % | 395 nM | 448 nM | 512 nM | 
COc1cc(C2=CCc3c2ccc(OC)c3OP(=O)(O)O)cc(OC)c1OC [Compound 32, Sodium 6-methoxy-3-(3′,4′,5′-trimethoxyphenyl)-1H-inden-7-yl phosphate] | > 20 µM |  | 1500 nM | 3340 nM | 334 nM | 
COc1ccc2c(c1O)CC=C2c1cc(OC)c(OC)c(OC)c1 [Compound 31, 6-Methoxy-3-(3′,4′,5′-trimethoxyphenyl)-1H-inden-7-ol] | 11 µM | 17 ± 5 (5 μM) % | 388 nM | 362 nM | 704 nM | 
COc1ccc2c(c1O)CCCC=C2c1cc(OC)c(OC)c(OC)c1 [KGP18, reference compound] | 1.4 µM |  |  |  |  | GI50 [7]: 0.0418 nM; GI50 [8]: 0.0249 nM; GI50 [9]: 0.0543 nM; GI50 values / cytotoxicity range in words [10]: subnanomolar; GI50 values / cytotoxicity range in words ([10]; listed as KPG18): sub-nM
COc1ccc2c(c1)CC=C2c1cc(OC)c(OC)c(OC)c1 [Compound 29, 6-Methoxy-3-(3′,4′,5′-trimethoxyphenyl)-1H-indene] | > 20 µM |  | 4020 nM | 4660 nM | 6150 nM | 
COc1cc(C2=CCCCCc3c2ccc(OC)c3OP(=O)([O-])[O-])cc(OC)c1OC.[Na+].[Na+] [Compound 24, Sodium 2-methoxy-5-(3′,4′,5′-trimethoxyphenyl)-benzocyclooct-5-en-1-yl phosphate] | > 20 µM |  | 26 nM | 41 nM | 36.6 nM | GI50 values / cytotoxicity range in words [10]: submicromolar; bioluminescence intensity at 24 and 48 h ([11]; 120 mg/kg ip, 24 and 48 h post administration, phosphate): the effect continued at both 24 and 48 h; also recorded: remained significantly below baseline values; vascular shutdown / reduction of blood flow as evidenced by BLI ([11]; 120 mg/kg, 4 h post administration, phosphate): significant vascular shutdown; also recorded: significant in vivo reduction of blood flow; reduction in bioluminescence (decrease compared to baseline or saline control) [11]: approximately 80%; tumor necrosis (H&E staining) compared with saline control [12]: much more extensive necrosis; tolerability of dose [13]: tolerated
COc1ccc2c(c1)CCCCC=C2c1cc(OC)c(OC)c(OC)c1 [Compound 21, 2-Methoxy-5-(3′,4′,5′-trimethoxyphenyl)-benzocyclooct-5-ene] | 3 ± 0.1 µM | 29 ± 5 (5 μM) % | 431 nM | 570 nM | 400 nM | 
COc1ccc(/C=C\c2cc(OC)c(OC)c(OC)c2)cc1OP(=O)(O)O [CA4P, Combretastatin A-4P, reference compound] |  |  |  |  |  | GI50 [7]: 2.82 nM; GI50 [8]: 3.36 nM; GI50 [9]: 1.9 nM; reduction in bioluminescence (decrease compared to baseline or saline control) [11]: approximately 80%; tumor necrosis (H&E staining) compared with saline control [12]: much more extensive necrosis; IC50 [2]: > 20 µM
